Test results: patent US9585861B1, “Method for treating a cancer with a mixed ligand gold(III) complexes as anti-cancer agents” (KING FAHD UNIVERSITY OF PETROLEUM AND MINERALS, priority 2015, dated 2017)
Read-outs that look alike come from different tables or passages of the source.

How the values were obtained:
[1] = Cyclic voltammetry in reference phosphate buffer; format: physicochemical; conditions: 1.0 mM, phosphate buffer pH 7.4, platinum electrode, 50 mV/s, room temperature
Method: The electrochemical experiments performed at room temperature using a potentiostat (SP-300, BioLogic Science Instruments) controlled by EC-Lab v10.34 software package. The electrochemical experiments were performed at room temperature. All the measurements were performed on solutions deaerated by bubbling ultra-pure nitrogen for 15 min. The values of potential here reported were measured against a saturated calomel electrode (SCE). The cyclic voltammetry of the compounds 1, 2 and 3 were measured at scan rate of 50 mV/s on a reference buffer (40 mM phosphate, 4 mM NaCl, pH 7.4) using platinum as working electrode and graphite as a counter electrode with a concentration of 1.0 mM at room temperature. Ferrocene was used as pseudo reference to calibrate the working electrode. The couple Fe^III/II formal potential of ferrocene occur at E°′=+0.44 V (vs SCE) in 0.1 M Bu4NPF6 solution in acetonitrile which is similar to the report value under the same experimental condition [Hans J, Beckmann A, Krüger H J (1999) Eur. J. Inorg. Chem. 163-172—incorporated herein by reference in its entirety]. Conversion to values vs NHE was obtained upon adding +0.24 V to the corresponding SCE values.
The electrochemical behavior of compounds 1, 2 and 3 was investigated in a physiological environment through cyclic voltammetry (CV). […] Gold(III) complexes 1, 2 and 3 show one irreversible reduction process in which the controlled potential coulometry involves three electrons per mole. The occurrence of Au(III)/Au(O) reduction is visually indicated by the appearance of a thin gold layer deposited on the platinum electrode surface after exhaustive electrolysis (Ew, −0.7 V).

[2] = tested on: human prostate PC3 cancer cells; test: MTT assay, in vitro cytotoxicity / cell growth inhibition on PC3 cells; format: cell-based; conditions: for time dependent antiproliferative effect: 10 μM, 24 h and 72 h; for IC50: 72 h exposure, MTT
Method: (§1) Human gastric SGC7901 cancer and prostate PC3 cancer cell lines were provided by American Type Culture Collection (ATCC). Cells were cultured in Dulbecco's Modified Eagle Medium (DMEM) supplemented with 10% fetal calf serum (FCS), penicillin (100 kU L^−1) and streptomycin (0.1 g L^−1) at 37° C. in a 5% CO2-95% air atmosphere. MTT (3-(4,5-Dimethylthiazol-2-yl)-2,5-diphenyltetrazolium bromide, a yellow tetrazole) was purchased from Sigma Chemical Co, St. Louis, Mo., USA.
(§2) An MTT assay was used to obtain the number of living cells in the sample. Human gastric cancer SGC7901 and prostate cancer PC3 cells were seeded on 96-well plates at a predetermined optimal cell density, i.e. ca 6000 cells/100 μL per well in 96-well plates, to ensure exponential growth in the duration of the assay. After 24 h pre-incubation, the growth medium was replaced with the experimental medium containing the appropriate drug, using one of 1,2-diaminocyclohexane(1,3-propylenediamine)gold(III) chloride compounds 1, 2 and 3 or a control using water. Six duplicate wells were set up for each sample, and cells untreated with drug served as a control. In one set of culture plates, human gastric cancer SGC7901 and human prostate PC3 cells were treated with 10 μM compounds 1, 2 and 3 as the drug and the control (water) for 24, 48 and 72 h. In other sets, the compounds 1, 2 and 3 with different concentration, i.e. 10, 20 and 30 μM, were employed to determine the growth inhibitory effect for both PC3 and SGC7901 cells separately. After incubation, 10 μL MTT (6 g/L, Sigma) was added to each well and the incubation was continued for 4 h at 37° C. After removal of the medium, MTT stabilization solution [dimethylsulfoxide (DMSO):ethanol=1:1] was added to each well, and shaken for 10 min until all crystals were dissolved. Then, the optical density was detected in a micro plate reader at 550 nm wavelength using an Enzyme-Linked Immuno-Sorbent Assay (ELISA) reader. After being treated with the 1,2-diaminocyclohexane(1,3-propylenediamine)gold(III) chloride compounds 1, 2 and 3, the cell viability was examined by MTT assay. Each assay was performed in triplicate. […] These cells were treated with various concentrations of compounds 1, 2 and 3 for 24-72 h.
(§3) Human gastric SGC7901 cells and prostate PC3 cells were incubated with these compounds at fixed concentrations or with water as a control to assess the inhibitory effect on cell growth. […] The cell survival versus drug concentration is plotted. Cytotoxicity was evaluated in vitro with reference to the IC50 value. The half maximal inhibitory concentration (IC50) is a measure of the effectiveness of a compound to inhibit biological or biochemical functions. According to the FDA, IC50 represents the concentration of a drug/compound/complex that is required for 50% inhibition in vitro. It is evaluated from the survival curves as the concentration needed for a 50% reduction of survival. IC50 values are expressed in μM.
(§4) The in vitro cytotoxic effect of mixed ligand gold(III) diamine complexes against androgen-resistant prostate PC3 and human gastric SGC7901 cancer cells were studied using MTT assay. […] For that reason, we used different concentrations and a 3-day exposure protocol to determine the IC50 values for all three complexes. The in vitro cytotoxicity in terms of IC50 values of cisplatin for PC3 and SGC7901 cells was included for a comparison.

[3] = tested on: human gastric SGC7901 cancer cells; test: MTT assay, in vitro cytotoxicity / cell growth inhibition on SGC7901 cells; format: cell-based; conditions: for time dependent antiproliferative effect: 10 μM, 24 h and 72 h; for IC50: 72 h exposure, MTT
Method: as §1, §2, §3, §4

[4] = NMR stability in D2O and mixed DMSO-d6/D2O; format: physicochemical; conditions: DMSO-d6/D2O (v/v 2/1), room temperature, after 7 days
Method: Compounds 1, 2 and 3 were tested for their stability in water as well as mixed solvents of DMSO/water (2/1 v/v ratio) solution by ^13C and ^1H NMR. […] The hydroscopic nature of DMSO could unfortunately lead to stability issue [Ellson R, Stearns R, Mutz M, Brown C, Browning B, Harris D, Qureshi S. Shieh J, Wold D (2005) Comb. Chem. High Throughput Screen, 8:489-498—incorporated herein by reference in its entirety]. To investigate the structural stability of the compounds, NMR spectra of the compounds dissolved in D2O and mixed DMSO-d6/D2O (v/v: 2/1) solvents were obtained on immediate dissolution and latter at 24 h and after three days 72 h at room temperature in mixed DMSO-d6/D2O and at 37° C. in D2O . A minimum of 30 mg/mL of representative gold(III) compounds 1, 2 and 3 were subjected to ^1H and ^13C NMR spectra analysis followed by dissolution in D2O and DMSO-d6/D2O (v/v: 2/1, 1 mL). The duplicate samples were dissolved and immediately stored at room temperature and 37° C., respectively, and followed by determination of stability through NMR measurements for compounds 1, 2 and 3 overtime periods of 24 h and 72 h.
The NMR spectra of the complexes were obtained upon immediate dissolution to serve as reference spectra and later at 24 h and after 7 days at 37° C. in D2O and at room temperature in mixed DMSO-d6/D2O in order to determine their stability. […]

[5] = listed as complex 1, read-out: IC50 (concentration of sample required to reduce the cell growth of tumor cell line by 50%)
[6] = read-out: IC50 (concentration of sample required to reduce the cell growth of tumor cell line by 50%)
[7] = listed as complex 3, read-out: IC50 (concentration of sample required to reduce the cell growth of tumor cell line by 50%)

Q: For `NC1CCCCC1N.NCCCN.[Au+3].[Cl-].[Cl-].[Cl-]` (stereo not drawn) [Complex 1, cis-1,2-diaminocyclohexane(1,3-propylenediamine)gold(III) chloride], which “Peak potential Ep vs. NHE for reduction” value ([1]; listed as 1) is on record?
A: 0.34 V

Q: And the “concentration dependent cell growth inhibition” value ([2]; 10 μM and 20 μM, 24 h)?
A: much better cell inhibition against PC3 cancer cell than complexes 3 and 2

Q: And the “time dependent antiproliferative effect” value ([2]; listed as complex 1)?
A: complex 3>complex 2>complex 1

Q: And the IC50 [2, 5]?
A: 9.5 µM

Q: What about the “time dependent antiproliferative effect” value ([3]; listed as complex 1) of the same molecule?
A: complex 3>complex 2>complex 1

Q: What about the IC50 [3, 5] of the same molecule?
A: 10.8 µM

Q: Which IC50 [2, 6] does the source give for `N.N.[Cl][Pt][Cl]` [Cisplatin, reference compound] here?
A: 1.1 µM

Q: What about the IC50 [3, 6] of the same molecule?
A: 7.3 µM

Q: Which results are given for `NC1CCCCC1N.NCCCN.[Au+3].[Cl-].[Cl-].[Cl-]` (racemic) [Complex 2, trans-(±)-1,2-diaminocyclohexane(1,3-propylenediamine)gold(III) chloride]?
A: Peak potential Ep vs. NHE for reduction [1]: 0.25 V; time dependent antiproliferative effect [2]: complex 3>complex 2>complex 1; IC50 [2, 6]: 10.2 µM; time dependent antiproliferative effect [3]: complex 3>complex 2>complex 1; IC50 [3, 6]: 10.9 µM

Q: Which results are given for `NC1CCCCC1N.NCCCN.[Au+3].[Cl-].[Cl-].[Cl-]` [Complex 3, (S,S)-(+)-1,2-diaminocyclohexane(1,3-propylenediamine)gold(III) chloride]?
A: dissociation of 1,3-propylenediamine [4]: approximately 50%; Peak potential Ep vs. NHE for reduction ([1]; listed as 3): 0.24 V; time dependent antiproliferative effect [2]: better cell inhibition against both PC3 and SGC7901 cell lines than complexes 1 and 2; time dependent antiproliferative effect ([2]; listed as complex 3): complex 3>complex 2>complex 1; IC50 [2, 7]: 9.1 µM; time dependent antiproliferative effect [3]: better cell inhibition against both PC3 and SGC7901 cell lines than complexes 1 and 2; time dependent antiproliferative effect ([3]; listed as complex 3): complex 3>complex 2>complex 1; IC50 [3, 7]: 10.1 µM
